ChEMBL document CHEMBL1201862, “PubChem BioAssay data set” (2004)
Activity calls are given as the source filed them.

Key:
[1] = target: T1, Fatty acid synthase (Homo sapiens, UniProt P49327); experiment: FAS thioesterase domain inhibitors, dose response, biochemical, endpoint fluorescence intensity, uHTS hits (AID 624327); type: functional;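 note: fluorescence from hydrolysis of an O-methyl fluorescein acyl ester substrate by the enzyme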
[2] = target: T1, Fatty acid synthase; experiment: FAS thioesterase domain inhibitors, dose response, biochemical, kinetic fluorescence intensity (AID 624326); type: functional;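 note: rate of fluorescence rise from hydrolysis of a fluorogenic O-methyl fluorescein ester substrate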
[3] = target: Cytochrome P450 3A4 (Homo sapiens, UniProt P08684);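 note: CYP3A4 tested as one member of a cytochrome P450 panel screen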
[4] = target: T2, Cytochrome P450 1A2 (Homo sapiens, UniProt P05177);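 note: PubChem cytochrome P450 panel assay, CYP1A2 panel member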
T2 sequence (P05177 whole entry): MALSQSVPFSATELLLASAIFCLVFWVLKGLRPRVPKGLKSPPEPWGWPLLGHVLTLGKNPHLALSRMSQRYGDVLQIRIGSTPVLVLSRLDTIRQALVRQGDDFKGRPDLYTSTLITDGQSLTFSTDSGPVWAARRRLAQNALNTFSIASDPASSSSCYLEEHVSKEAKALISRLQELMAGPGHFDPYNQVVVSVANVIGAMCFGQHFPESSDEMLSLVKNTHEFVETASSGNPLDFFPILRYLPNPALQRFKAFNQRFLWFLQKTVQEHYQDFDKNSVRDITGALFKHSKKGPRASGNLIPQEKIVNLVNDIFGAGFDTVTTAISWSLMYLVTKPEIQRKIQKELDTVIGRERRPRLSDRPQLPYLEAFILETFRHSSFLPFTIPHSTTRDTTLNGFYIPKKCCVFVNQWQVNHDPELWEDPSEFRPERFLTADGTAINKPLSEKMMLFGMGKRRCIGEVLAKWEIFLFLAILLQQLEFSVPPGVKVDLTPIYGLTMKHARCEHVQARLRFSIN

[5] = target: Cytochrome P450 2D6 (Homo sapiens, UniProt P10635);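 note: CYP2D6 member of a cytochrome P450 panel assay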
[6] = tested on: BJ; experiment: cells; type: functional, cell-based; details: Homo sapiens
[7] = cytotoxicity toward DRD oncogenic fibroblasts, dose response, cell-based, non-viral oncogenic, luminescence (AID 1934); type: functional; details: Homo sapiens
[8] = tested on: BJ; experiment: cytotoxicity toward BJ-TERT-LT-ST fibroblasts, dose response, cell-based, RAS-independent, luminescence (AID 1935); type: functional; details: Homo sapiens;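 note: BJ fibroblasts immortalized with TERT plus LT and ST oncogenes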
[9] = tested on: BJ; experiment: cytotoxicity toward BJ-TERT fibroblasts, dose response, cell-based, RAS-independent, luminescence (AID 1933); type: functional; details: Homo sapiens
[10] = cytotoxicity in HEK-293T cells, dose response, cytotoxicity control for TCR NF-kB inhibitor project, luminescence, T-cell screen hits (AID 489026); type: functional, cell-based;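 note: cells exposed to compound about 14 hours before the viability readout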
[11] = control 3'UTR Renilla luciferase suppression, dose response, counter-screen for Shn3 inhibitor project, cell-based, Clone20-Shn3RL, cherry-picked (AID 624133); type: functional
[12] = Shn3 3'UTR reporter inhibitors, dose response, cell-based, Clone20 osteoblasts, firefly luciferase, cherry-picked (AID 624132); type: functional;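 note: firefly luciferase luminescence from reporter carrying the Shn3 3'UTR in osteoblasts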
[13] = HepG2 cell cytotoxicity, dose response, cytotoxicity control for Shn3 inhibitor project, CellTiter-Glo, cherry-picked (AID 624134); type: functional, cell-based
[14] = tested on: INS1; experiment: beta cell apoptosis inhibitors, cytokine rescue, dose response, luminescence, retest (AID 449756); type: functional, cell-based; details: Rattus norvegicus;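 note: cell death triggered by IL-1 beta plus TNF-alpha plus IFN-gamma mixture; protective hits raise ATP signal compared with cytokine alone wells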
[15] = target: T3, Corticotropin-releasing factor receptor 2/Corticotropin-releasing factor-binding protein (Homo sapiens, UniProt P24387+Q13324); experiment: activators of CRF receptor 2 with binding protein – uHTS hits, confirmation (AID 602473); type: functional; details: read-out: EC50_Mean
T3 sequence (Q13324 whole entry): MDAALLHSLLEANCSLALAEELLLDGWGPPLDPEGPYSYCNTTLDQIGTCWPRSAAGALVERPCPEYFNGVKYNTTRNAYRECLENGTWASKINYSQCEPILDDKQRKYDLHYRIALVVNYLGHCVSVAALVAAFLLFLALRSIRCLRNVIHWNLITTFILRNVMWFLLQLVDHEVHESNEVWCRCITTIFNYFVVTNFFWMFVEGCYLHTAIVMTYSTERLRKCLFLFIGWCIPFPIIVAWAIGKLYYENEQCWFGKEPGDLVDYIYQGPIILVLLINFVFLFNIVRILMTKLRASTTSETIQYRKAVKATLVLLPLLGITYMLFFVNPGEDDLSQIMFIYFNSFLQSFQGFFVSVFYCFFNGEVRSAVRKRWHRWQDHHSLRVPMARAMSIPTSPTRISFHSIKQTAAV
T3 sequence (P24387 whole entry): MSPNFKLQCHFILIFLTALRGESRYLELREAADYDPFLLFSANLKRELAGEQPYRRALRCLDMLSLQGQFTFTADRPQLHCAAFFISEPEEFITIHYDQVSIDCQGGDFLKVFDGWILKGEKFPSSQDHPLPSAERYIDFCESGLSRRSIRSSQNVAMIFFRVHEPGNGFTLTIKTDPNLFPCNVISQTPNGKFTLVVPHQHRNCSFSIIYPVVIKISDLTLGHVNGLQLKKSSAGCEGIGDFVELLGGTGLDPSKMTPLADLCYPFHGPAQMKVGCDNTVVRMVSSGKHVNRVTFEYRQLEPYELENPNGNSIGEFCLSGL

[16] = target: T3, Corticotropin-releasing factor receptor 2/Corticotropin-releasing factor-binding protein; experiment: Dose Response confirmation of uHTS hits for small molecule antagonists of the CRF-binding protein and CRF-R2 receptor complex.; type: functional; details: read-out: IC50_Mean
[17] = cells; type: functional

T1 sequence (P49327 whole entry, the tested form may be a part): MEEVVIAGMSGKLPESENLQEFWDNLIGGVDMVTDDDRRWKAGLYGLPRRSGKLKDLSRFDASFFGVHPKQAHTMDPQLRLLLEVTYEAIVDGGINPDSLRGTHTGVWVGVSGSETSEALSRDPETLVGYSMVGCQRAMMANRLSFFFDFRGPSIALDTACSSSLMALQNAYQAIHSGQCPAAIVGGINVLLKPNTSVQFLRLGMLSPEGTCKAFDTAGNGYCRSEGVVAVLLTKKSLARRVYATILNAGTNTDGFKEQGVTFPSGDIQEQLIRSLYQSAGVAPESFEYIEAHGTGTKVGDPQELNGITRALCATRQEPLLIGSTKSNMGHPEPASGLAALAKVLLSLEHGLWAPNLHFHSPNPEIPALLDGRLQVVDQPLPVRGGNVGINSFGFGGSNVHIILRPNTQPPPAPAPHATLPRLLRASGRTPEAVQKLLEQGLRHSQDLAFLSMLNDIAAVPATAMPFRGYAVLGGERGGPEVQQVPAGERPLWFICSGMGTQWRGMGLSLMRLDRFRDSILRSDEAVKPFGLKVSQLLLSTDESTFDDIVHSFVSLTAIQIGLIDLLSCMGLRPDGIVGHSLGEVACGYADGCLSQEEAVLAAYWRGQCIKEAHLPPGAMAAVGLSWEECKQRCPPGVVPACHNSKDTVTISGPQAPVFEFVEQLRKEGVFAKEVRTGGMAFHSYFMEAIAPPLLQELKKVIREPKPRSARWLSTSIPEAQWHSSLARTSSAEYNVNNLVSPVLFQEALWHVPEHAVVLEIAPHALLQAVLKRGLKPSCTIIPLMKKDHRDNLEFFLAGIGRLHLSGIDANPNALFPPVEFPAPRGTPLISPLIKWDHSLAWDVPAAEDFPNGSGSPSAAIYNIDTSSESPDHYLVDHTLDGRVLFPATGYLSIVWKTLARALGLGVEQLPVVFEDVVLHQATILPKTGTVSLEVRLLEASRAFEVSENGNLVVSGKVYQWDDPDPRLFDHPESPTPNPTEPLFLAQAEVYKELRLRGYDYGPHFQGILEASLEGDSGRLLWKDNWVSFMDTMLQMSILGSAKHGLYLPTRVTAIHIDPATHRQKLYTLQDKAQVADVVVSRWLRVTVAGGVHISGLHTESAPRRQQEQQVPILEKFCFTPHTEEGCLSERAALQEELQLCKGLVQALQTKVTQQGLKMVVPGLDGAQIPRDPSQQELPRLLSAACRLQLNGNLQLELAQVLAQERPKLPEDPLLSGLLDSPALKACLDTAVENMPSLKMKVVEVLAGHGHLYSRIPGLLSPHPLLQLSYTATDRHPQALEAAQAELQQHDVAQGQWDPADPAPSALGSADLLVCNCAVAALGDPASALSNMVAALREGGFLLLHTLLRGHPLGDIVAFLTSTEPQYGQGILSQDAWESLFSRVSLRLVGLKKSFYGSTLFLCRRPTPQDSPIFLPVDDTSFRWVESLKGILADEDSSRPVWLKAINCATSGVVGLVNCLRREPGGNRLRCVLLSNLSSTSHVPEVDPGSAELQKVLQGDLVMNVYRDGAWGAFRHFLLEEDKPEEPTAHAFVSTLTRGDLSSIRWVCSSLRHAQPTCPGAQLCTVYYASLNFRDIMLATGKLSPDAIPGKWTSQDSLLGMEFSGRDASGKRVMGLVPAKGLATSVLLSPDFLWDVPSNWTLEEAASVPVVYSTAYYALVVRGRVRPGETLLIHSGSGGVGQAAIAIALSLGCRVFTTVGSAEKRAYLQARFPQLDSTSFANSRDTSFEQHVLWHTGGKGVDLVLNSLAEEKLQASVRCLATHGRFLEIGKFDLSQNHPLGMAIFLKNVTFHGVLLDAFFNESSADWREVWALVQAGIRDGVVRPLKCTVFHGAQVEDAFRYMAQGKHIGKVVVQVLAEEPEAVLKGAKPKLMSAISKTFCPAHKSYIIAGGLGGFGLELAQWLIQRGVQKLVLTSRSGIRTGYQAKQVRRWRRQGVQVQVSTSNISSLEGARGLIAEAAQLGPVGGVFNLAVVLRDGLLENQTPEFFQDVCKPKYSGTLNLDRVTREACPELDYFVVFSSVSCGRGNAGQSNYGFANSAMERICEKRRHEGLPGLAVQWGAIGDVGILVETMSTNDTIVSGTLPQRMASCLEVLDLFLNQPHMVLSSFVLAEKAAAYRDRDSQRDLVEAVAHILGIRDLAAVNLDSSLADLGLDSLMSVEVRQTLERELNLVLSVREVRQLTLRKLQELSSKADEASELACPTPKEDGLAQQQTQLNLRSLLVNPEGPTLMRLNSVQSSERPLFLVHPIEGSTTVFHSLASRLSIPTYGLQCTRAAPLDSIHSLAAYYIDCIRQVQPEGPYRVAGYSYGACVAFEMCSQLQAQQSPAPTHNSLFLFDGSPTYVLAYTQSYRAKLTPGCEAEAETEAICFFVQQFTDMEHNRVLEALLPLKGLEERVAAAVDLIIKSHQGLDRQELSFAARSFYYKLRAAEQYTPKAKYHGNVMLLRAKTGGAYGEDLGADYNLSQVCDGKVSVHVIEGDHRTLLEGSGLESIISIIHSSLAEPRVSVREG
Sequence of Cytochrome P450 2D6 (P10635 whole entry): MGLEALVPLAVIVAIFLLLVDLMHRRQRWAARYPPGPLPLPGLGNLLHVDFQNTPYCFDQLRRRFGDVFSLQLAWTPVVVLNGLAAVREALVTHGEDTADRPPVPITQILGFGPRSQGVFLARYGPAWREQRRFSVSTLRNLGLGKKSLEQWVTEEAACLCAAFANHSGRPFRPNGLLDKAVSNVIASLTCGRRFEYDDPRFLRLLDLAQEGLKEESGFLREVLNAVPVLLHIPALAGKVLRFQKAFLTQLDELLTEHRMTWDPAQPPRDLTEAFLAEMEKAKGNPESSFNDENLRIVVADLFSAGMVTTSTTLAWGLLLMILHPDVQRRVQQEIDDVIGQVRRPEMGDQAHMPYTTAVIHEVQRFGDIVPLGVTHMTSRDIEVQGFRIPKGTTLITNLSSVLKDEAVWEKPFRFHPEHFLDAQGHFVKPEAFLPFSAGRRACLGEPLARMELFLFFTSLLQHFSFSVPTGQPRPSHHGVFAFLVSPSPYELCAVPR
Sequence of Cytochrome P450 3A4 (P08684 whole entry): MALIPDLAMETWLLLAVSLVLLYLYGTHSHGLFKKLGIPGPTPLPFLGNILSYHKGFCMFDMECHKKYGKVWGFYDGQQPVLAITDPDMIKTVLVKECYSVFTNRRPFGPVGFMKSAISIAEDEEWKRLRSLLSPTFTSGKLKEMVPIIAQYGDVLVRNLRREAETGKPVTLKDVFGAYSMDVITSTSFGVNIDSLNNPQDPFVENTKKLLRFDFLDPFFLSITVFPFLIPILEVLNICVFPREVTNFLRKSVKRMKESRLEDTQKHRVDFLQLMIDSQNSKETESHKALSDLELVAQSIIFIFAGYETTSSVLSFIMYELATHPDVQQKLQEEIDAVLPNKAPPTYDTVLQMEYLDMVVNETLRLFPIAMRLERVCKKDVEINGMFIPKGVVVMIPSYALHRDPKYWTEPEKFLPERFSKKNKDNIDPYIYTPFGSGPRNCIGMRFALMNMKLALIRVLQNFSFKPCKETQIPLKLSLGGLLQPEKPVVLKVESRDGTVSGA

For CC(C)(C)c1cc(Br)c(O)c(N=Nc2ccc(S(=O)(=O)N3CCOCC3)cc2)c1, which IC50 [1] is on record?
Its IC50 is 3.8 µM (active).

What about the IC50 [2] of the same compound?
The IC50 was 2.66 µM (active).

For CC(C)c1ccc(/C=N/NC(=O)CN(c2cccc(Cl)c2Cl)S(C)(=O)=O)cc1, which AC50 [3] is on record?
Its AC50 is 28.2 µM (inconclusive).

And the AC50 [4]?
Its AC50 is 25.1 µM (inconclusive).

What about the IC50 [1] of the same compound?
The IC50 was 10.4 µM (active).

What about the AC50 [5] of the same compound?
The AC50 was 28.2 µM (inconclusive).

What about the IC50 [2] of the same compound?
The IC50 was 7.36 µM (active).

What does the source list for CCOC(=O)C(C)Oc1cccc2c(=O)n(CC(=O)NCc3ccccc3)ccc12 (stereo not drawn)?
EC50 [6]: 7.35 µM (active); EC50 [7]: 0.645 µM (active); EC50 [8]: 0.785 µM (active); EC50 [9]: 0.772 µM (active); IC50 [10]: > 80 µM (inactive)

For CCCCC1(Cc2ccc([N+](=O)[O-])cc2)C(=O)N(c2ccccc2)N(c2ccccc2)C1=O, which AC50 [11] is on record?
Its AC50 is 3.42 µM (active).

What about the AC50 [12] of the same compound?
Its AC50 is 10.2 µM (active).

What about the AC50 [13] of the same compound?
Its AC50 is 66.8 µM (active).

What about the AC50 [14] of the same compound?
The AC50 was 3.67 µM (active).

What does the source list for Cc1ccc(C(=O)c2cc([N+](=O)[O-])ccc2N2CCCCC2)cc1C?
EC50 [6]: 35.6 µM (active); EC50 [7]: 0.966 µM (active); EC50 [8]: 1.33 µM (active); EC50 [9]: 1.69 µM (active); IC50 [10]: > 80 µM (inactive)

Which results are given for O=C(CC1N=C2c3ccccc3N=C(SCc3ccccc3Cl)N2C1=O)NCc1ccco1 (stereo not drawn)?
EC50 [15]: > 53 µM (inactive); IC50 [16]: > 47.1 µM (inactive)

For O=C(COC(=O)CCc1c[nH]c2ccccc12)NCc1ccc(Cl)cc1, which IC50 [17] is on record?
Its IC50 is 11.8 µM (active).

For C=CCOC(=O)COc1ccc2c(C)c(CC)c(=O)oc2c1, which IC50 [1] is on record?
Its IC50 is 5.57 µM (active).

And the IC50 [2]?
Its IC50 is 3.08 µM (active).

Which IC50 [17] does the source give for O=C(COc1ccc(Br)cc1)Nc1ccc([N+](=O)[O-])cn1 here?
Its IC50 is 26.3 µM (active).

For CC(=O)N1CCCc2cc(S(=O)(=O)N3CCCC(C(=O)N4CCN(c5cccc(Cl)c5)CC4)C3)ccc21 (stereo not drawn), which AC50 [11] is on record?
Its AC50 is 1.13 µM (active).

And the AC50 [12]?
The AC50 was 1.9 µM (active).

What about the AC50 [13] of the same compound?
Its AC50 is 3.29 µM (active).

What about the AC50 [14] of the same compound?
The AC50 was 2.88 µM (active).

Which results are given for COc1cc(O)c2c(c1)COC2=O?
EC50 [15]: > 53 µM (inactive); IC50 [16]: > 47.1 µM (inactive)
